Data set [1] has as its system cholesterol absorption. Put plainly: Cholesterol Absorption Assay in Rat. It is filed as in vivo. Conditions: CD male rats, oral dosing, at the highest dose tested (0.0003 to 1 mg/kg); [3H]-cholesterol counts in liver and plasma. The method, then:
Compounds of this invention were determined to inhibit cholesterol absorption employing the Cholesterol Absorption Assay in Rat, below. This assay involves comparing a test compound to ezetimibe with respect to their ability to inhibit cholesterol absorption in rat.
Cholesterol Absorption Assay in Rats: CD male rats (n=5/group), aged 5 weeks, were dosed orally with 0.5 ml 0.25% methyl cellulose solution with or without test compound or ezetimibe (0.0003 to 1 mg/kg). 0.5 to 16 hrs later all of the rats were dosed orally with 0.5 ml INTRALIPID® containing 5 μCi [^3H]-cholesterol per rat. Five hours later, the animals were euthanized, and liver and blood were collected. Cholesterol counts in liver and plasma were determined, and percent inhibition of cholesterol absorption was calculated.

The term melting point denotes the temperature of the solid-liquid transition. Consider `O=C1[C@H](CC[C@H](O)c2ccc(F)cc2)[C@@H](c2ccc(CCC(O)(CO)CO)cc2)N1c1ccc(CCc2nc[nH]n2)cc1` [Example 2, (3R,4S)-4-{4-[3,4-dihydroxy-3-(hydroxymethyl)butyl]phenyl}-3-[(3S)-3-(4-fluorophenyl)-3-hydroxypropyl]-1-{4-[2-(1H-1,2,4-triazol-5-yl)ethyl]phenyl}azetidin-2-one], for which the melting point came to 104 °C.

Regarding `O=C1[C@H](CC[C@H](O)c2ccc(F)cc2)[C@@H](c2ccc(O)cc2)N1c1ccc(F)cc1` [ezetimibe, Ezetimibe], the “inhibition of cholesterol absorption” value in data set [1] is recorded as greater than 90%.

For the origin of these results see patent US20100069347A1, “HETEROCYCLYL-SUBSTITUTED ANTI-HYPERCHOLESTEROLEMIC COMPOUNDS” (priority 2006, published 2010).
